According to US10787443B2, “RAF-degrading conjugate compounds” (ZAMBONI CHEM SOLUTIONS INC., priority 2017, dated 2020):
Entries after “also recorded” stand apart in the source; their conditions may differ.

Experiments:
[1] = biological target: T1, CRAF (CRAF fusion protein with a fluorescent protein) in Calu-6 cells (Homo sapiens, UniProt P04049); assay: Degradation assay, fluorescent CRAF fusion protein levels in Calu-6 cells (IncuCyte S3); assay type: cell-based; conditions: fluorescence/confluence
T1 construct: fluorescent protein (green); expressed in transfected cells; host or cells: Calu-6
Protocol: Calu-6 cells were stably transfected with a CRAF fusion protein with a fluorescent protein attached to the C-terminus of CRAF in order to monitor protein levels via fluorescence. Cells were seeded into a 96-well plate and allowed to adhere overnight. The next day cells are treated with compounds at the doses indicated in the table below and analyzed over time. Data was collected by monitoring Fluorescent CRAF protein levels an IncuCyte S3 Live Cell Analysis System (Essen BioScience). […] Calu6_CRAF fusion protein cells are imaged and analyzed using an Incucyte S3 live-cell analysis system (Essen Biosciences). Fluorescence signal is due to expression of the fluorescent protein covalently fused to the C-terminus of CRAF and degradation is assessed by measuring fluorescence/confluence (˜cell number) after treatment with compounds of the present disclosure. Phase contrast images are analyzed using Incucyte S3 software. Percent confluence is calculated using a phase contrast mask to quantify the area of the image occupied by the Calu6_CRAF fusion protein cells. Fluorescent images are analyzed using Incucyte S3 software. Green Corrected Units (GCU) is calculated using a fluorescence mask to quantify the area of the image occupied by green fluorescent signal and the intensity of the signal. […] As discussed above, degradation is measured as a function of fluorescence/confluence.

[2] = system: GST-Braf kinase domain and biotinylated E3 substrate adapter (VHL/EloB/EloC complex or CRBN318-425); assay: Dimerization assay (AlphaScreen/AlphaLisa), RAF/E3 dimerization; assay type: binding; conditions: Table 17; relative value; compounds 4 fold serial dilutions from 20 μM
[3] = biological target: BRAF/VHL (Homo sapiens, UniProt P15056+P40337); conditions: FIG. 12; various concentrations
BRAF/VHL, sequence (P15056 457-717 limits assumed): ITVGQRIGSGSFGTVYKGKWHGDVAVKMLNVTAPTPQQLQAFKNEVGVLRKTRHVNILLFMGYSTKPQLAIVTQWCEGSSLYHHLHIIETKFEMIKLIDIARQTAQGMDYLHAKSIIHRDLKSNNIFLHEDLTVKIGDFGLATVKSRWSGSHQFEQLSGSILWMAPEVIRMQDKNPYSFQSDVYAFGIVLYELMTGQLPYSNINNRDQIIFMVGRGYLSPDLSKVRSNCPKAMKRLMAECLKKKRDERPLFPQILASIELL
BRAF/VHL, sequence (P40337 54-213 limits assumed): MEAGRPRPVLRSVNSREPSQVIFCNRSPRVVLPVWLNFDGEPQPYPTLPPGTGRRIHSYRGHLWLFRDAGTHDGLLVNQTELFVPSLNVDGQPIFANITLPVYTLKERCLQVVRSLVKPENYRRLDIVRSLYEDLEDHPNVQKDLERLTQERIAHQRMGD
BRAF/VHL, sequence (Q15370 whole entry partner): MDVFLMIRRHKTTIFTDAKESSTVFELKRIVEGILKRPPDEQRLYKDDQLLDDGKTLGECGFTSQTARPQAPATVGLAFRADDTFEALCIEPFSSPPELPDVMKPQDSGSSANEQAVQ
BRAF/VHL, sequence (Q15369 17-112 partner limits assumed): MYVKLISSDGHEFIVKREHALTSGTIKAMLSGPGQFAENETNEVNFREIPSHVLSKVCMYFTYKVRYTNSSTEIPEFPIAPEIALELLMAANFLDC

T1 sequence (P04049 whole entry, the tested form may be a part): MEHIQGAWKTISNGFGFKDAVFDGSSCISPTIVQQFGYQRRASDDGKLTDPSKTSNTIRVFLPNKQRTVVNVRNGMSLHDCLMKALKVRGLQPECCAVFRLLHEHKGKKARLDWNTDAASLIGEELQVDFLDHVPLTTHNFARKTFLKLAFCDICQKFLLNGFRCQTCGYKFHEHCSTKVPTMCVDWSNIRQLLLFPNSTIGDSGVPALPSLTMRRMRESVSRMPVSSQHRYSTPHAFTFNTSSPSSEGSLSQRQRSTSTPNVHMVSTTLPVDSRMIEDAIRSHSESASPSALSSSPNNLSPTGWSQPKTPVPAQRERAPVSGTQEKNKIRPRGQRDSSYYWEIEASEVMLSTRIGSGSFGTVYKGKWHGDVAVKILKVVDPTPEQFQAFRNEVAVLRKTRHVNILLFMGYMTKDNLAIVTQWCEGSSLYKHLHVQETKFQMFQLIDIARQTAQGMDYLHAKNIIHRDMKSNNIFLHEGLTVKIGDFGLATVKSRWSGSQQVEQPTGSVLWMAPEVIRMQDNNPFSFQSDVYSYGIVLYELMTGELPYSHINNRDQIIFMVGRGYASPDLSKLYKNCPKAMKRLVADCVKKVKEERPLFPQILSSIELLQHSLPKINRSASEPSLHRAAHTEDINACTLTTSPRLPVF

Cc1ncc(NC(=O)c2cccc(C(F)(F)F)c2)cc1-c1cnc(OCCOCCOCCOCCOCC(=O)NCCOCCCc2cccc3c2CN(C2CCC(=O)NC2=O)C3=O)c(N2CCOCC2)c1 (stereo not drawn) [Compound 2.016, N-(2-(3-(2-(2,6-dioxopiperidin-3-yl)-1-oxoisoindolin-4-yl)propoxy)ethyl)-14-((2′-methyl-5-morpholino-5′-(3-(trifluoromethyl)benzamido)-[3,3′-bipyridin]-6-yl)oxy)-3,6,9,12-tetraoxatetradecan-1-amide]
CRAF degradation in Calu6 cells over time ([1]; 5 μM, FIG. 11): CRAF degradation
RAF/E3 Dimerization [2]: +++++ (RAF/E3 Dimerization ≥75%)

Cc1ccc(NC(=O)c2cccc(C(F)(F)F)c2)cc1-c1cnc(OCCc2cn(CCCCCC(=O)Nc3cccc4c3C(=O)N(C3CCC(=O)NC3=O)C4=O)nn2)c(N2CCOCC2)c1 (stereo not drawn) [Compound 1.009, N-(3-(6-(2-(1-(6-((2-(2,6-dioxopiperidin-3-yl)-1,3-dioxoisoindolin-4-yl)amino)-6-oxohexyl)-1H-1,2,3-triazol-4-yl)ethoxy)-5-morpholinopyridin-3-yl)-4-methylphenyl)-3-(trifluoromethyl)benzamide]
CRAF degradation in Calu6 cells over time ([1]; 3 μM, FIG. 4, 8, 9): CRAF degradation
RAF/E3 Dimerization [2]: + (5% > RAF/E3 Dimerization)

Cc1ncc(NC(=O)c2cccc(C(F)(F)F)c2)cc1-c1cnc(OCCOCCOCCOCc2cn(CCCCCC(=O)N[C@@H](C(=O)N3C[C@@H](O)C[C@@H]3C(=O)N[C@@H](C)c3ccc(-c4scnc4C)cc3)C(C)(C)C)nn2)c(N2CCOCC2)c1 [Compound 2.010, (2R,4S)-1-((R)-3,3-dimethyl-2-(6-(4-((2-(2-(2-((2′-methyl-5-morpholino-5′-(3-(trifluoromethyl)benzamido)-[3,3′-bipyridin]-6-yl)oxy)ethoxy)ethoxy)ethoxy)methyl)-1H-1,2,3-triazol-1-yl)hexanamido)butanoyl)-4-hydroxy-N—((S)-1-(4-(4-methylthiazol-5-yl)phenyl)ethyl)pyrrolidine-2-carboxamide]
CRAF degradation in Calu6 cells over time ([1]; 1.67 μM, FIG. 13, FIG. 14): no CRAF degradation; also recorded: does not significantly reduce the relative amount of CRAF

Cc1ncc(NC(=O)c2cccc(C(F)(F)F)c2)cc1-c1cnc(OCCOCCOCCOCC(=O)NCCOCCCc2cccc3c2C(=O)N(C2CCC(=O)NC2=O)C3=O)c(N2CCOCC2)c1 (stereo not drawn) [Compound 2.021, N-(6′-((18-(2-(2,6-dioxopiperidin-3-yl)-1,3-dioxoisoindolin-4-yl)-11-oxo-3,6,9,15-tetraoxa-12-azaoctadecyl)oxy)-2-methyl-5′-morpholino-[3,3′-bipyridin]-5-yl)-3-(trifluoromethyl)-benzamide]
CRAF degradation in Calu6 cells over time ([1]; 15 μM, FIG. 6): CRAF degradation
RAF/E3 Dimerization [2]: ++ (25% > RAF/E3 Dimerization ≥ 5%)

Cc1ncc(NC(=O)c2cccc(C(F)(F)F)c2)cc1-c1cnc(OC2CCOCC2)c(N2CCOCC2)c1 [RAF709, reference compound]
BRAF/VHL dimerization [3]: does not cause dimerization

Cc1ccc(NC(=O)c2cccc(C(F)(F)F)c2)cc1-c1cnc(OCCOCc2cn(CCCCCC(=O)Nc3cccc4c3C(=O)N(C3CCC(=O)NC3=O)C4=O)nn2)c(N2CCOCC2)c1 (stereo not drawn) [Compound 2.012, N-(3-(6-(2-((1-(6-((2-(2,6-dioxopiperidin-3-yl)-1,3-dioxoisoindolin-4-yl)amino)-6-oxohexyl)-1H-1,2,3-triazol-4-yl)methoxy)ethoxy)-5-morpholinopyridin-3-yl)-4-methylphenyl)-3-(trifluoromethyl)benzamide]
CRAF degradation in Calu6 cells over time ([1]; 3 μM, FIG. 4, 8, 9): CRAF degradation
RAF/E3 Dimerization [2]: +++ (50% > RAF/E3 Dimerization ≥ 25)

Cc1ncc(NC(=O)c2cccc(C(F)(F)F)c2)cc1-c1cnc(OCCOCCOCCOCCOCC(=O)NCCCCCc2cccc3c2CN(C2CCC(=O)NC2=O)C3=O)c(N2CCOCC2)c1 (stereo not drawn) [Compound 2.014, N-(5-(2-(2,6-dioxopiperidin-3-yl)-1-oxoisoindolin-4-yl)pentyl)-14-((2′-methyl-5-morpholino-5′-(3-(trifluoromethyl)benzamido)-[3,3′-bipyridin]-6-yl)oxy)-3,6,9,12-tetraoxatetradecan-1-amide]
CRAF degradation in Calu6 cells over time ([1]; 12.5 μM, FIG. 7): CRAF degradation
RAF/E3 Dimerization [2]: +++++ (RAF/E3 Dimerization ≥75%)

Cc1ncc(NC(=O)c2cccc(C(F)(F)F)c2)cc1-c1cnc(OCCOCCOCC(=O)NCCCCCCc2cccc3c2CN(C2CCC(=O)NC2=O)C3=O)c(N2CCOCC2)c1 (stereo not drawn) [Compound 2.015, N-(6′-(2-(2-(2-((6-(2-(2,6-dioxopiperidin-3-yl)-1-oxoisoindolin-4-yl)hexyl)amino)-2-oxoethoxy)ethoxy)ethoxy)-2-methyl-5′-morpholino-[3,3′-bipyridin]-5-yl)-3-(trifluoromethyl)benzamide]
CRAF degradation in Calu6 cells over time ([1]; 2 μM, FIG. 10): CRAF degradation
RAF/E3 Dimerization [2]: +++ (50% > RAF/E3 Dimerization ≥ 25)

Cc1ncc(NC(=O)c2cccc(C(F)(F)F)c2)cc1-c1cnc(O[C@H]2CCO[C@@H](COCc3cn(CCCCCC(=O)N[C@@H](C(=O)N4C[C@H](O)C[C@H]4C(=O)N[C@@H](C)c4ccc(-c5scnc5C)cc4)C(C)(C)C)nn3)C2)c(N2CCOCC2)c1 (relative stereo) [Compound 2.004, (2S,4R)-1-((R)-3,3-dimethyl-2-(6-(4-((((2R*,4S*)-4-((2′-methyl-5-morpholino-5′-(3-(trifluoromethyl)benzamido)-[3,3′-bipyridin]-6-yl)oxy)tetrahydro-2H-pyran-2-yl)methoxy)methyl)-1H-1,2,3-triazol-1-yl)hexanamido)butanoyl)-4-hydroxy-N—((S)-1-(4-(4-methylthiazol-5-yl)phenyl)ethyl)pyrrolidine-2-carboxamide]
CRAF degradation in Calu6 cells over time ([1]; 1.5 μM, FIG. 3): CRAF degradation
RAF/E3 Dimerization [2]: +++ (50% > RAF/E3 Dimerization ≥ 25)

Cc1ncc(NC(=O)c2cccc(C(F)(F)F)c2)cc1-c1cnc(OCCOCCOCCOCCOCCOCC(=O)N[C@@H](C(=O)N2C[C@H](O)C[C@H]2C(=O)N[C@@H](C)c2ccc(-c3scnc3C)cc2)C(C)(C)C)c(N2CCOCC2)c1 [Compound 2.001, (2S,4R)-1-((R)-2-(tert-butyl)-20-((2′-methyl-5-morpholino-5′-(3-(trifluoromethyl)-benzamido)-[3,3′-bipyridin]-6-yl)oxy)-4-oxo-6,9,12,15,18-pentaoxa-3-azaicosan-1-oyl)-4-hydroxy-N—((S)-1-(4-(4-methylthiazol-5-yl)phenyl)ethyl)pyrrolidine-2-carboxamide]
CRAF degradation in Calu6 cells over time ([1]; 3 μM, FIG. 4, 8, 9): CRAF degradation
RAF/E3 Dimerization [2]: +++++ (RAF/E3 Dimerization ≥75%)
